How the values were obtained:
[1] = test system: average human of 50 kg; conditions: ICHQ3C R8, solvent to be limited; cited from earlier work
[2] = test system: rats; conditions: 3-month ingestion; cited from earlier work
[3] = test system: human; conditions: EFSA Opinion of Mar. 15, 2022; cited from earlier work
[4] = test system: domestic laying hens; assay: Egg production of domestic laying hens after oral administration in capsules; assay type: in vivo, chicken; conditions: for Number of eggs (average number of eggs per day laid by 4 chickens): oral capsules, control 3.5
Protocol: In this example, domestic laying hens have been divided into four groups: • the 4 chickens of the control group have not ingested 2-methyloxolane. • the 12 chickens of the N×1 group have ingested pure liquid 2-methyloxolane in capsules. The ingested dose of pure liquid 2-methyloxoane was 3.18 mg/kg of the chicken/day, i.e. 40 mg/kg in the daily ration, • the 12 chickens of the N×5 group have ingested pure liquid 2-methyloxolane in capsules. The ingested dose of pure liquid 2-methyloxoane was 15.88 mg/kg of the chicken/day, i.e. 200 mg/kg in the daily ration, and • the 12 chickens of the N×10 group have ingested pure liquid 2-methyloxolane in capsules. The ingested dose of pure liquid 2-methyloxoane was 31.77 mg/kg of the chicken/day, i.e. 400 mg/kg in the daily ration (the group N×10). The egg production of each group has been monitored in order to statistically validate the significance of the effect of an oral administration of 2-methyloxolane on egg production. The statistical processing is as follows: A one-factor analysis of variance (ANOVA) has been carried out using the XLSTAT 2020.2.1 software on MS EXCEL 16.0.15225. […] In case of a significant difference between the averages, a Student's t-test with a level of significance of 5% will be applied for the comparison in pairs using the same software. In total, 1,115 eggs have been counted throughout the observations. Table 1 hereinbelow presents the average of the number of eggs per day laid by 4 chickens as a function of their basking group.

SMILES | Acceptable Daily Dose [1] [mg] | Dose with no undesirable effect observed [2] [mg/kg body weight per day] | Human exposure limit recommended by EFSA [3] | Effect of oral administration on number of laid eggs per chicken ([4]; 40 to 400 mg/kg in daily ration, no apparent dose effect, ANOVA and Student's t-test, 5% level) | Number of eggs (average number of eggs per day laid by 4 chickens) ([4]; N × 1 group: 3.18 mg/kg of the chicken/day, i.e. 40 mg/kg in the daily ration) | Number of eggs (average number of eggs per day laid by 4 chickens) ([4]; N × 5 group: 15.88 mg/kg of the chicken/day, i.e. 200 mg/kg in the daily ration) | Number of eggs (average number of eggs per day laid by 4 chickens) ([4]; N × 10 group: 31.77 mg/kg of the chicken/day, i.e. 400 mg/kg in the daily ration) | More eggs laid per week than animal whose feed is not supplemented ([4]; feed supplemented by the dietary supplement comprising 2-methyloxolane)
CCCCCC [hexane] | 2.9 | – | – | – | – | – | – | –
CC1CCCO1 (centres unmarked) [2-methyloxolane] | – | 250 | 1 mg/kg human body weight per day | significantly increases | 3.9 | 3.9 | 3.9 | up to 14%

Source: patent US20260157993A1, “USE OF 2-METHYLOXOLANE FOR FEEDING OVIPAROUS ANIMALS” (ECOXTRACT, priority 2022, published 2026)
